The record followed here is article PMC6614406, “Phylogenetic and crystallographic analysis of Nostoc phycocyanin having blue-shifted spectral properties” (Scientific Reports, 2019).

The target of assay [1] is T1, Nostoc sp. R76DM phycocyanin (N-PC) (Nostoc, UniProt A0A5H1ZR40+A0A5H1ZR41).
T1 construct: native, purified from Nostoc sp; R76DM cells; (alpha3beta3)2 hexamer; subunits near 18 kDa on SDS-PAGE; chromophores covalently attached
The assay is described as follows: X-ray crystal structure ([…] Å). Type of assay: binding. The following applies: covalent; native chromophore attached to alpha Cys84, beta Cys82 and beta Cys153; 18 PCB per hexamer.

The target in assay [2] is Nostoc sp. R76DM phycocyanin αβ heterodimer (αβ monomer) (Nostoc sp. R76DM). Briefly: crystal structure; N-PC at 10 mg/mL, sitting drop vapor diffusion, 0.2 M sodium malonate, 20% (w/v) PEG 3350, 25 °C; space group P21, 2.35 Å; one (α3β3)2 hexamer in the asymmetric unit.

T1 sequence (A0A5H1ZR41 entry or part of it): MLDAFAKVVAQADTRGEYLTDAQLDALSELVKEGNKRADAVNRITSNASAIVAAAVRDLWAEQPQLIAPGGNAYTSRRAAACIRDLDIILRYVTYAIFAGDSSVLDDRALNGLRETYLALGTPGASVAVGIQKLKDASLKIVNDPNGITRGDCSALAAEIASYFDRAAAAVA
T1 sequence (A0A5H1ZR40 entry or part of it): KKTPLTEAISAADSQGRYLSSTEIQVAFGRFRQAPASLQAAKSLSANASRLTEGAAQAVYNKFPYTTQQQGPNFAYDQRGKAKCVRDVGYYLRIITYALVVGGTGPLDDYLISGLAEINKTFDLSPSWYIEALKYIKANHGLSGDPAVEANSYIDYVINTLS

Take `C/C=C1/C(=C/c2[nH]c(/C=C3N=C(/C=C4\NC(=O)C(CC)=C4C)C(C)=C\3CCC(=O)O)c(CCC(=O)O)c2C)NC(=O)[C@@H]1C` [phycocyanobilin]: in assay [1], the “X-ray crystal structure (2.35 Å)” value is listed as “The N-PC contains three PCB chromophores; one is attached covalently with Cys84 of α-subunit”. For orientation: stoichiometry N means a count of units in the complex or per binding partner. Consider “Nostoc sp. R76DM phycocyanin αβ heterodimer (αβ monomer) (complex)”, for which the stoichiometry N in assay [2] was found to be 6.
